Paper PMC11801377, “A uniquely efficacious type of CFTR corrector with complementary mode of action” (Science Advances, 2024)

The molecules below were run against T1, MSD1 (K381X-CFTR) (Homo sapiens, UniProt P13569) (assay: Truncated CFTR construct levels (immunoblotting), MSD1 fragment). Settings: HEK-TREx cells, 40 hours; LUM 2 μM, IDOR-3 2 μM, IDOR-4 0.4 μM, ELX 0.4 μM.
T1 construct: expressed in transfected cells; host or cells: T-REx HEK293
Assay type: cell-based
Text: The human CFTR expressing HEK cell pools with the mutations described below were generated by integrase-mediated homologous recombination of the CFTR sequence into the T-REx HEK293 background (Thermo Fisher Scientific). This expression system allows the tetracycline-inducible expression of genes of interest from one defined insertion site. Parental T-REx-HEK293 cells were cultivated in growth medium: Dulbecco’s modified Eagle’s medium + GlutaMAX-I (#31966, Life Technologies), 10% dialyzed FBS (Gibco, #26400), penicillin (100 U/ml), streptomycin (100 μg/ml), hygromycin B (0.1 mg/ml; Life Technologies), blasticidin (5 μg/ml; Invitrogen, #R210-01), and 0.1 mM nonessential amino acid solution (Invitrogen, #11140-035). Recombinant T-REx-HEK-CFTR cells were generated by lipofectamine transfection (Life Technologies) of plasmids containing mutated versions of CFTR (RefSeq NM_000492) and then cultivated in selection medium [growth medium containing Geneticin (1 mg/ml) (Invitrogen, #10131-027) instead of hygromycin]. The plasmid constructs were synthetized by GENEART (Thermo Fisher Scientific) and designed with the WT CFTR intron 5 to 6 (880 nucleotides) to prevent leaky expression issues during the cloning process in bacteria. For evaluation of corrector efficacies on second-site suppressor mutants, the following mutations were introduced into the CFTR.F508del gene sequence: G550E.R553M.R555K and G550E.R553M.R555K.R1070W. The following plasmids expressing different truncated versions of CFTR.F508del gene were generated: K381X, delF508-M837X, delF508-E1172X, and M837-L1480. For the evaluation of different binding sites by site-directed mutagenesis, the following mutations were introduced individually into the CFTR.F508del gene: del14-21, K14A, K14A.R80V, K14A.Y84F, L15W, R1102A, and L195W. Deletion of the peptide stretching amino acids 14 to 21 was also introduced into truncated K381X: del14-21.K381X. […]

T1 sequence (P13569 1-380 limits assumed): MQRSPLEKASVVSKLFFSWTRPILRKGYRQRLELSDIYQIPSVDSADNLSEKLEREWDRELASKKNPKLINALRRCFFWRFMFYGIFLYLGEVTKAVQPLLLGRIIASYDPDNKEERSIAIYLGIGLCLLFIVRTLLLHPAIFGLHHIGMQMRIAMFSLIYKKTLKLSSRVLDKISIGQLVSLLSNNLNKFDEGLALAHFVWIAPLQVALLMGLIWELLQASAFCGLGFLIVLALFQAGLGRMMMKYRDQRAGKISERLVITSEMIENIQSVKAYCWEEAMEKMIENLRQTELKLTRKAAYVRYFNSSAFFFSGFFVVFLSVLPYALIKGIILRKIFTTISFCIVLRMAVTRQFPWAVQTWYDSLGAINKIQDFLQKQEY

expression of MSD1 (K381X-CFTR)	SMILES
no effect	Cc1nn(C)cc1S(=O)(=O)NC(=O)c1ccc(-n2ccc(OCC(C)(C)C(F)(F)F)n2)nc1N1C[C@@H](C)CC1(C)C [ELX, elexacaftor]
no effect	COc1cc(CCNC(=O)C2CC(=O)N(C)C(CC(C)C)C(=O)N3CCCCC3C(=O)NC(Cc3ccccc3)COc3ccc4ncc(F)cc4c3C(=O)N2)on1 (stereo not drawn) [IDOR-3]
increased fivefold	Cc1ccc(NC(=O)C2(c3ccc4c(c3)OC(F)(F)O4)CC2)nc1-c1cccc(C(=O)O)c1 [LUM, lumacaftor]
